In assay [1] the target is T1, human TTK (Homo sapiens, UniProt P33981).
T1 construct: Active TTK was purchased from Invitrogen as an amino terminal GST fusion of full length human TTK; purchased Invitrogen
T1 sequence (P33981 1-857): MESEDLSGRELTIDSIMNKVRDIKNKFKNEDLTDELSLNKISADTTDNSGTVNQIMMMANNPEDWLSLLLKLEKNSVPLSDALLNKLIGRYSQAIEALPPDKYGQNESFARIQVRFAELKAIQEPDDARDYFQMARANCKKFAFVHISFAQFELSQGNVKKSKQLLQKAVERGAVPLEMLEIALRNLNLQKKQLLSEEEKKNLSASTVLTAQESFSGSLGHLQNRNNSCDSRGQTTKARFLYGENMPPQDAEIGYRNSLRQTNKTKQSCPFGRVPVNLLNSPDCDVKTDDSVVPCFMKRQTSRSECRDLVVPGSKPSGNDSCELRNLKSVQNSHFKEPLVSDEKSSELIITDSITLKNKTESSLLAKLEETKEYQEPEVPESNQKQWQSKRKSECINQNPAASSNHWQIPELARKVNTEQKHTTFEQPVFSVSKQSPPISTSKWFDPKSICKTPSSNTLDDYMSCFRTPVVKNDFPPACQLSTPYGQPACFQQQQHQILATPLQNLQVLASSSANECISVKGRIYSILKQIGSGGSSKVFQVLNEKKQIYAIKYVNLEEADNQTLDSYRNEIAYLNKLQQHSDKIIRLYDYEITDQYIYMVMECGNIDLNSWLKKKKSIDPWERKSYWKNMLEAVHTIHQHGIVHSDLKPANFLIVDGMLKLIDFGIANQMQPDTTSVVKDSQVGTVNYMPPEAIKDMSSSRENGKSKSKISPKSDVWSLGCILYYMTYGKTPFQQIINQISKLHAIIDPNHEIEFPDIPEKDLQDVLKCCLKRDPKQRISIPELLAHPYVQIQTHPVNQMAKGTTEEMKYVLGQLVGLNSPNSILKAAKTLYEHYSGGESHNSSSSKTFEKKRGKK
As to the kind of experiment: TTK inhibition assay (indirect ELISA). Type of assay: biochemical. The procedure, abridged:
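Activity detected by indirect ELISA after compounds sat with full-length GST-TTK for 5 min prior to starting the reaction with ATP. IC50 came from a four-parameter logistic curve of % inhibition, calculated against background and uninhibited control wells.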
For orientation: ELISA stands for enzyme-linked immunosorbent assay.

Assay [2] deals with breast cancer cells (MDA-MB-468). As to the kind of experiment: Cancer cell line growth inhibition, Sulforhodamine B assay, MDA-MB-468. Format: cell-based. The note with it: Homo sapiens, MDA-MB-468, MDA-MB-468 breast cancer cell line; read-out: Cancer Cell Line GI50 Range MDA-MB-468. The gist of the method: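 Sulforhodamine B staining (TCA-fixed, read at 570 nm) estimates cell mass after 5-day compound treatment of MDA-MB-468 cells, final concentrations 10 nM to 50 μM in 10% FBS DMEM. GI50 derived from growth inhibition versus DMSO controls.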

Assay [3] deals with colon cancer cells (HCT116). Put plainly: Cancer cell line growth inhibition, Sulforhodamine B assay, HCT116. The settings on record: Homo sapiens, HCT-116, HCT116 colon cancer cell line; read-out: Cancer Cell Line GI50 Range HCT116. Format: cell-based. The procedure, abridged: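 GI50 is calculated from growth inhibition relative to DMSO controls, using TCA-fixed, SRB-stained protein mass read at 570 nm. Compound, 10 nM–50 μM final in 10% FBS DMEM, was applied for 5 days to HCT116 cells that had been plated 24 h before at 1000–4000/well.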
For orientation: Sulforhodamine B stains cellular protein and so reports cell mass.

The test system of assay [4] is Ovarian 2393A tumor initiating cells. As to the kind of experiment: Tumor-initiating cell growth inhibition, Alamar Blue assay, ovarian TICs. Format: cell-based. The settings on record: 144 h; Ovarian 2393A TICs, 6 days; read-out: Tumor Initiating Cell GI50 Range Ovarian 2393A. The source says: (§1) Non-tissue or tissue cultured treated T-75 flask and 96-well plates were purchased from VWR. Vitamin B-27 supplement, MEM NEAA (minimum essential medium non essential amino acids), sodium pyruvate, L-glutamine, N2 supplement, penicillin-streptomycin and fungizone/amphotericin B were obtained from Invitrogen. Lipid mixture, heparin and EGF were purchased from Sigma; bFGF from BD Biosciences. Tumor Initiating Cells (TICs) from colon were routinely maintained using non-tissue cultured treated T-75 flasks in DMEM:F12 medium containing 0.2XB-27 supplement, 4 ug/ml heparin, 1×MEM NEAA, 1×sodium pyruvate, 1 mM glutamine, 10 pg/ul bFGF, 20 pg/ul EGF, 1× N2 supplement, lipid mixture, penicillin-streptomycin and fungizone/amphotericin B. Ovarian TICs were routinely maintained using tissue cultured treated T-75 flasks in DMEM:F12 medium containing IXB-27 supplement, 4 ug/ml heparin, 20 pg/ul bFGF, 20 pg/ul EGF and penicillin-streptomycin.
(§2) Compounds described herein were dissolved in DMSO and further diluted in cell culture medium for GI50 determination. Colon TICs were trypsinized and seeded into non-tissue cultured treated 96-well plates with 4,000 cells/well. After 24 h, compound was added into the cell culture at different concentrations, and the final concentration of DMSO was adjusted to 0.1%. Cells were then cultured at 37° C. for 9 days. Ovarian TICs were trypsinized and seeded into tissue cultured treated 96-well plates with 1,000 cells/well. After 24 h, compound was added into the cell culture at different concentrations, and the final concentration of DMSO was adjusted to 0.1%. Cells were then cultured at 37° C. for 6 days. Cell viability was assessed by Alamar Blue assay: 10 ul of Alamar Blue was added into each well. After 4 hours incubation at 37° C., fluorescence was recorded at excitation 544 and emission 590. GI50 (Growth inhibition) was calculated using GraphPad Prism 4.0 software.
(§3) In Table 1 below, GI50 value ranges for compound examples against TICs (Colon 12 and Ovarian 2393A) are given.
Background: Alamar Blue is a resazurin reagent that responds to reducing activity.

Assay [5] has as its system ovarian cancer cells (OVCAR-3). As to the kind of experiment: Cancer cell line growth inhibition, Sulforhodamine B assay, OVCAR-3. Format: cell-based. The settings on record: Homo sapiens, OVCAR-3, OVCAR-3 ovarian cancer cell line; read-out: Cancer Cell Line GI50 Range OVCAR-3. The gist of the method: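 OVCAR-3 cells were seeded 24 h before compound addition, then exposed for 5 days to final concentrations of 10 nM to 50 μM in DMEM with 10% FBS. Growth was measured by TCA fixation and sulforhodamine B staining with absorbance at 570 nm. Inhibition was relative to DMSO-only cells, and GI50 came from curve fitting.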

The test system of assay [6] is Colon 12 tumor initiating cells. Put plainly: Tumor-initiating cell growth inhibition, Alamar Blue assay, colon TICs. Type of assay: cell-based. The settings on record: 216 h; Colon 12 TICs, 9 days; read-out: Tumor Initiating Cell GI50 Range Colon 12.
Source text: as §1, §2, §3

[7] abbreviates: 100 μM ATP, read-out: TTK IC50 Range.
[8] abbreviates: 16 μM ATP (Sigma cat# A7699), read-out: TTK IC50 Range (denoted with an asterisk).

SMILES strings stand for the structures. Read-outs that look alike come from different tables or passages of the source.

For `Cc1cc(-c2cnn3c(NC[C@H]4CC[C@@H](O)CC4)cc(Oc4cccnc4)nc23)ccc1C(=O)NC1CC1` [Example C176], the IC50 (as a rule, the concentration at which inhibition is half-maximal) in assay [1] (setting [7]) is below 100 nM. Besides, the GI50 in assay [2], in assay [3], in assay [4], in assay [5] and in assay [6] was at most 100 nM in each case.
In the case of `Cc1cc(-c2cnn3c(NCCN4CCC(O)CC4)cc(Oc4cccc(F)c4)nc23)ccc1C(=O)NC1CC1` [Example C182], the half-maximal inhibitory concentration (IC50) in assay [1] (setting [7]) is below 100 nM. The concentration for 50% growth inhibition (GI50) in assay [2], in assay [3], in assay [4], in assay [5] and in assay [6] was at most 100 nM in each case.
For the molecule `Cc1cc(-c2cnn3c(NC[C@H]4C[C@H](O)C4)cc(Oc4cccnc4)nc23)ccc1C(=O)NC1CC1` [Example C144], the IC50 in assay [1] (setting [7]) was below 100 nM. The GI50 in assay [2], in assay [3], in assay [4], in assay [5] and in assay [6] was at most 100 nM each time.
For the molecule `Cc1cc(-c2cnn3c(NCC4CCOCC4)cc(OC4CCN(C5COC5)C4)nc23)ccc1C(=O)NC1CC1` (stereo not drawn) [Example C116], in assay [1] (setting [7]), the half-inhibitory concentration (IC50) is below 100 nM. Besides, the GI50 (as a rule, the concentration at which growth is held to half of that of the control) is 100 to 500 nM in assay [2]; at most 100 nM in assay [3]; 100 to 500 nM in assay [4]; 100 to 500 nM in assay [5]; 100 to 500 nM in assay [6].
Take `Cc1cc(-c2cnn3c(NCC4CCOCC4)cc(N[C@@H](C(C)C)C(C)(C)O)nc23)ccc1C(=O)NC1CC1` [Example C40, (S)-N-cyclopropyl-4-(5-((2-hydroxy-2,4-dimethylpentan-3-yl)amino)-7-(((tetrahydro-2H-pyran-4-yl)methyl)amino)pyrazolo[1,5-a]pyrimidin-3-yl)-2-methylbenzamide]: in assay [1] (setting [7]), the half-maximal inhibitory concentration (IC50) was below 100 nM. Moreover, the 50% growth inhibitory concentration (GI50) in assay [2] was at most 100 nM; in assay [3], at most 100 nM; in assay [4] it was 100 to 500 nM; in assay [5], 100 to 500 nM; in assay [6], at most 100 nM.
`Cc1cc(-c2cnn3c(NCC4CCOCC4)cc(N[C@@H](C4CC4)C(C)(C)O)nc23)ccc1C(=O)NC1CC1` [Example C41, (S)-N-cyclopropyl-4-(5-((1-cyclopropyl-2-hydroxy-2-methylpropyl)amino)-7-(((tetrahydro-2H-pyran-4-yl)methyl)amino)pyrazolo[1,5-a]pyrimidin-3-yl)-2-methylbenzamide]: the IC50 in assay [1] (setting [7]) was below 100 nM. Besides, the GI50 is at most 100 nM in assay [2]; at most 100 nM in assay [3]; 100 to 500 nM in assay [4]; at most 100 nM in assay [5]; at most 100 nM in assay [6].
As to `Cc1cc(-c2cnn3c(NCC4CCOCC4)nc(Oc4ccccc4F)nc23)ccc1C(=O)NC1CC1` [Example C20], the concentration for half-maximal inhibition (IC50) in assay [1] (setting [8]) was below 100 nM. For the same molecule, the GI50 in assay [2] was 100 to 500 nM; in assay [3], at most 100 nM; in assay [4] it was 100 to 500 nM; in assay [5], 100 to 500 nM; in assay [6], at most 100 nM.
On to `Cc1cc(-c2cnn3c(NC[C@H]4CC[C@@H](O)CC4)nc(Oc4cccc(F)c4)nc23)ccc1C(=O)NC1CC1` [Example C24], for which the 50% inhibitory concentration (IC50) in assay [1] (setting [8]) was below 100 nM. The concentration for 50% growth inhibition (GI50) in assay [2], in assay [3], in assay [4], in assay [5] and in assay [6] was at most 100 nM throughout.
Take `Cc1cc(-c2cnn3c(NC[C@H]4CC[C@H](O)CC4)cc(Oc4cccnc4)nc23)ccc1C(=O)NC1CC1` [Example C177]: in assay [1] (setting [7]), the IC50 was below 100 nM. Moreover, the GI50 was 100 to 500 nM in assay [2]; 100 to 500 nM in assay [3]; at most 100 nM in assay [4]; 100 to 500 nM in assay [5]; at most 100 nM in assay [6].
For `Cc1cc(-c2cnn3c(NCC4COC4)cc(N[C@H]4CCCC[C@H]4O)nc23)ccc1C(=O)NC1CC1` [Example C37, N-cyclopropyl-4-(5-(((1S,2R)-2-hydroxycyclohexyl)amino)-7-((oxetan-3-ylmethyl)amino)pyrazolo[1,5-a]pyrimidin-3-yl)-2-methylbenzamide], the IC50 in assay [1] (setting [7]) was below 100 nM. The GI50 in assay [2], in assay [3], in assay [4], in assay [5] and in assay [6] was at most 100 nM in each case.
For the molecule `Cc1cc(-c2cnn3c(NCCN(C)C)cc(Oc4cccc(F)c4)nc23)ccc1C(=O)NC1CC1` [Example C187], the half-inhibitory concentration (IC50) in assay [1] (setting [7]) is below 100 nM. Further, the GI50 in assay [2] is at most 100 nM; in assay [3], at most 100 nM; in assay [4], at most 100 nM; in assay [5], 100 to 500 nM; in assay [6], at most 100 nM.
Take `Cc1cc(-c2cnn3c(NCC4CCOCC4)cc(N[C@@H]4CCCC[C@@H]4O)nc23)ccc1C(=O)NC1CC1` [Example C118]: in assay [1] (setting [7]), the IC50 was below 100 nM. In addition, the GI50 in assay [2] was 100 to 500 nM; in assay [3], at most 100 nM; in assay [4], 100 to 500 nM; in assay [5], 100 to 500 nM; in assay [6], 100 to 500 nM.
For the molecule `Cc1cc(-c2cnn3c(NCC4CCOCC4)cc(N[C@H]4CC[C@H](O)CC4)nc23)ccc1C(=O)NC1CC1` [Example C48], the half-maximal inhibitory concentration (IC50) in assay [1] (setting [7]) was below 100 nM. The 50% growth inhibitory concentration (GI50) in assay [2], in assay [3], in assay [4], in assay [5] and in assay [6] was 100 to 500 nM in each case.
Turning to `Cc1cc(-c2cnn3c(NCC4CCOCC4)cc(-c4ccncc4)nc23)ccc1C(=O)NC1CC1` [Example C150], the concentration for half-maximal inhibition (IC50) in assay [1] (setting [7]) was below 100 nM. The GI50 in assay [2], in assay [3], in assay [4], in assay [5] and in assay [6] was 100 to 500 nM each time.
As to `Cc1cc(-c2cnn3c(NCC4(F)CCN(C)CC4)cc(Oc4cccc(F)c4)nc23)ccc1C(=O)NC1CC1` [Example C28], in assay [1] (setting [7]), the IC50 is below 100 nM. In addition, the GI50 in assay [2], in assay [3], in assay [4], in assay [5] and in assay [6] was at most 100 nM throughout.
